In patent publication US20230123334A1, “AMINO LIPID COMPOUND, PREPARATION METHOD THEREFOR, AND APPLICATION THEREOF” (SHENZHEN SHENXIN BIOTECHNOLOGY CO., LTD., priority 2020, published 2023):

Test system: HEK293 cells
Assay: Preliminary screening as DNA vectors, GFP transfection of HEK293 cells
Format: cell-based
Settings: amino lipid/DOPE liposome with 75 ng plasmid DNA (psin-EGFP-IRES-Puro); number of GFP-expressing cells divided by total nuclei (Hoechst)
In short: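 HEK293 cells in DMEM/10% FBS transfected with 75 ng EGFP plasmid per well complexed with amino lipid/DOPE liposomes in pH 5.6 sodium acetate. Hoechst nuclear stain added 20-24 h post-transfection, then cells cultured another 20-24 h. Confocal imaging gives GFP-positive cells as % of total nuclei.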

Structure (SMILES) | Absolute DNA transfection efficiency in HEK293 cells [%]
CCCCCCCCCCCCCCCCNc1nc(NCCN2CCCC2)nc(SCCCCCC)n1 [S6N16 D3] | 19.8
CCCCCCCCCCCCCNc1nc(NCCN(C)C)nc(SCCCCCCC)n1 [S7N13 D1] | 11.7
CCCCCCCCCCCCCCSc1nc(NCCCCCCCC)nc(NCCN2CCN(C)CC2)n1 [S14N8 D5] | 19.6
CCCCCCCCCCCCCCCCCCNc1nc(NCCN(CC)CC)nc(SCCCCCCCCCCC)n1 [S11N18 D7] | 3.4
CCCCCCCCCCCCN(CCCCCCCCCCCC)c1nc(NCCCN2CCN(C)CC2)nc(SCCCCCCCCCC)n1 [S10^2N12 D9] | 0.5
CCCCCCCCCCCCSc1nc(NCCCCCC)nc(NCCN2CCOCC2)n1 [S12N6 D2] | 0.1
CCCCCCCCCCSc1nc(NCCN(C)C)nc(SCCCCCCCC)n1 [S8S10 D1] | 16.3
CCCCCCCCCSc1nc(NCC2CCN(C)CC2)nc(SCCCCCC)n1 [S6S9 D10] | 18.0
CCCCCCCCCCCCSc1nc(NCCN2CCOCC2)nc(SCCCCCCCC)n1 [S8S12 D2] | 16.1
CCCCCCCCCCCCCCCCCCNc1nc(NCCN(CC)CC)nc(SCCCCCCCC)n1 [S8N18 D7] | 4.1
CCCCCCCCCCCCNc1nc(NCCCN2CCOCC2)nc(SCCCCCCCC)n1 [S8N12 D8] | 16.1
CCCCCCCCCCSc1nc(NCCN2CCN(C)CC2)nc(SCCCCCCCC)n1 [S8S10 D5] | 19.5
CCCCCCCCCCCCCCCCSc1nc(NCCCCCCCCC)nc(NCCN2CCCC2)n1 [S16N9 D3] | 13.7
CCCCCCCCCNc1nc(NCCN2CCN(C)CC2)nc(SCCCCCC)n1 [S6N9 D5] | 7.9
CCCCCCCCCCCCCCCCSc1nc(NCCCCCCCCCCCC)nc(NCCN(CC)CC)n1 [S16N12 D7] | 0.7
CCCCCCCCCCCCCCCCSc1nc(NCCCCCCC)nc(NCCCN2CCOCC2)n1 [S16N7 D8] | 12.0
CCCCCCSc1nc(NCCCN2CCN(C)CC2)nc(SCCCCCC)n1 [S6S6 D9] | 7.6
CCCCCCCCCCCSc1nc(NCCCCCC)nc(NCCN2CCCCC2)n1 [S11N6 D4] | 29.0
CCCCCCCCCCCCCCCSc1nc(NCCCCCCCC)nc(NCCCN(C)C)n1 [S15N8 D6] | 23.9
CCCCCCCCCCCCCCCCNc1nc(NCCCN2CCOCC2)nc(SCCCCCCCCCCCCCCC)n1 [S15N16 D8] | 0.0
CCCCCCCCCCCCCCCNc1nc(NCC2CCN(C)CC2)nc(SCCCCCCCCCCCCCCC)n1 [S15N15 D10] | 0.3
CCCCCCCCCCCCCCSc1nc(NCCCCCCC)nc(NCCCN(C)C)n1 [S14N7 D6] | 25.0
CCCCCCCCCCCSc1nc(NCCCCCCCCC)nc(NCCN(CC)CC)n1 [S11N9 D7] | 2.0
CCCCCCCCCNc1nc(NCCN2CCN(C)CC2)nc(SCCCCCCCCC)n1 [S9N9 D5] | 47.4

Structure (SMILES) | Absolute DNA transfection efficiency in HEK293 cells [%]
CCCCCCCCCSc1nc(NCCCCCCCC)nc(NCCCN2CCOCC2)n1 [S9N8 D8] | 12.2
CCCCCCCCCCCCSc1nc(NCCCCCCC)nc(NCCCN(C)C)n1 [S12N7 D6] | 11.2
CCCCCCCCCCCCCCCCCCSc1nc(NCCCCCCCCCCCCCCC)nc(NCCN2CCOCC2)n1 [S18N15 D2] | 0.0
CCCCCCCCCCCCCCSc1nc(NCCCCCCCC)nc(NCCN2CCCC2)n1 [S14N8 D3] | 24.4
CCCCCCCCCCCCNc1nc(NCCCN2CCOCC2)nc(SCCCCCCCCCCC)n1 [S11N12 D8] | 1.5
CCCCCCCCCCCCCCCCNc1nc(NCCN2CCN(C)CC2)nc(SCCCCCCCC)n1 [S8N16 D5] | 14.3
CCCCCCCCCCCCCNc1nc(NCC2CCN(C)CC2)nc(SCCCCCCCCCCCC)n1 [S12N13 D10] | 2.4
CCCCCCCCCCCCCCCCSc1nc(NCCN2CCCCC2)nc(N(CCCCCCCCCCCC)CCCCCCCCCCCC)n1 [S16^2N12 D4] | 0.1
CCCCCCCCCCCNc1nc(NCCN(C)C)nc(SCCCCCC)n1 [S6N11 D1] | 1.5
CCCCCCCCCCCCSc1nc(NCCCCCC)nc(NCCCN2CCOCC2)n1 [S12N6 D8] | 0.1
CCCCCCCCCCCCCCCCNc1nc(NCCN2CCN(C)CC2)nc(SCCCCCCCCCC)n1 [S10N16 D5] | 3.1
CCCCCCCCCCCCCCSc1nc(NCCCCCCCCCCCCC)nc(NCCCN(C)C)n1 [S14N13 D6] | 2.6
CCCCCCCCCCCCCCCCNc1nc(NCCN(C)C)nc(SCCCCCC)n1 [S6N16 D1] | 6.6
CCCCCCCNc1nc(NCCCN2CCOCC2)nc(SCCCCCC)n1 [S6N7 D8] | 0.0
CCCCCCCCCCCCCCCSc1nc(NCCCCCCCC)nc(NCCN2CCOCC2)n1 [S15N8 D2] | 19.3
CCCCCCCCCCCCCCCCCCNc1nc(NCCN2CCCCC2)nc(SCCCCCC)n1 [S6N18 D4] | 3.5
CCCCCCCCCCCCCCCCSc1nc(NCCCCCC)nc(NCCN(CC)CC)n1 [S16N6 D7] | 5.8
CCCCCCCCCCCCCCCCCCSc1nc(NCCCCCCCCCCC)nc(NCCN(CC)CC)n1 [S18N11 D7] | 2.7
CCCCCCCNc1nc(NCCCN(C)C)nc(SCCCCCCC)n1 [S7N7 D6] | 33.5
CCCCCCCCCCCCSc1nc(NCCN2CCCCC2)nc(SCCCCCCC)n1 [S7S12 D4] | 9.5
CCCCCCCCCCCCCCCSc1nc(NCCCCCCCCCCCC)nc(NCCCN2CCOCC2)n1 [S15N12 D8] | 1.5
CCCCCCCCCCCSc1nc(NCCCCCC)nc(NCCN(CC)CC)n1 [S11N6 D7] | 25.0
CCCCCCCCCCCCCCCCCCSc1nc(NCCCCCCCCC)nc(NCCCN2CCOCC2)n1 [S18N9 D8] | 3.0
CCCCCCCCCCCCCNc1nc(NCCN(C)C)nc(SCCCCCCCCCCCC)n1 [S12N13 D1] | 1.4

Structure (SMILES) | Absolute DNA transfection efficiency in HEK293 cells [%]
CCCCCCCCCCCCCCCCSc1nc(NCCCCCCCCCCC)nc(NCCN2CCCC2)n1 [S16N11 D3] | 16.6
CCCCCCCCCCCCCCCCCCNc1nc(NCCCN2CCN(C)CC2)nc(SCCCCCCCCCC)n1 [S10N18 D9] | 3.3
CCCCCCCSc1nc(NCCN2CCN(C)CC2)nc(SCCCCCC)n1 [S6S7 D5] | 5.7
CCCCCCCCCCCCCCCCCCSc1nc(NCCCCCC)nc(NCCCN2CCN(C)CC2)n1 [S18N6 D9] | 11.0
CCCCCCCCCCCCNc1nc(NCCN2CCOCC2)nc(SCCCCCCCC)n1 [S8N12 D2] | 38.1
CCCCCCCCCSc1nc(NCCCCCCCC)nc(NCCCN(C)C)n1 [S9N8 D6] | 17.9
CCCCCCCCCCCCCCCCSc1nc(NCCN2CCCC2)nc(SCCCCCC)n1 [S6S16 D3] | 9.8
CCCCCCCCCCCCCNc1nc(NCCN2CCN(C)CC2)nc(SCCCCCCC)n1 [S7N13 D5] | 23.3
CCCCCCCCCCCCCCCCCCSc1nc(NCCN2CCCC2)nc(SCCCCCCC)n1 [S7S18 D3] | 11.2
CCCCCCCCCCCCN(CCCCCCCCCCCC)c1nc(NCCN2CCOCC2)nc(SCCCCCCCCCCC)n1 [S11^2N12 D2] | 0.0
CCCCCCCCCCCCCCCSc1nc(NCCCCCCCCC)nc(NCCN(C)C)n1 [S15N9 D1] | 21.3
CCCCCCCCSc1nc(NCCCCCCC)nc(NCCCN2CCN(C)CC2)n1 [S8N7 D9] | 3.6
CCCCCCCCCCCCCCCNc1nc(NCCN2CCCC2)nc(SCCCCCCCCC)n1 [S9N15 D3] | 22.7
CCCCCCCCCCCCSc1nc(NCCCCCCCCC)nc(NCCN(C)C)n1 [S12N9 D1] | 4.5
CCCCCCCCCSc1nc(NCCCN2CCOCC2)nc(SCCCCCCC)n1 [S7S9 D8] | 12.2
CCCCCCCCCCCCCCCCCCSc1nc(NCCCCCCCCC)nc(NCCN2CCN(C)CC2)n1 [S18N9 D5] | 7.7
CCCCCCCCCCCCCNc1nc(NCCCN2CCN(C)CC2)nc(SCCCCCCCCCCCC)n1 [S12N13 D9] | 2.1
CCCCCCCCCCSc1nc(NCCCCCC)nc(NCCN2CCCC2)n1 [S10N6 D3] | 7.3
CCCCCCCCCCCCCCCCSc1nc(NCCCCCCCCCCCC)nc(NCCN2CCCCC2)n1 [S16N12 D4] | 0.0
CCCCCCCCCCCCCCSc1nc(NCCCCCCCCCCCC)nc(NCCCN(C)C)n1 [S14N12 D6] | 6.3
CCCCCCCCCCCCCCCCCCSc1nc(NCCN(CC)CC)nc(N(CCCCCCCCCCCC)CCCCCCCCCCCC)n1 [S18^2N12 D7] | 0.0
CCCCCCCCCCCCCCCCCCSc1nc(NCCCCCCCC)nc(NCCN(C)C)n1 [S18N8 D1] | 4.1
CCCCCCCCCCCCNc1nc(NCC2CCN(C)CC2)nc(SCCCCCCCCCCC)n1 [S11N12 D10] | 4.7
CCCCCCCCCSc1nc(NCCCCCCC)nc(NCCCN(C)C)n1 [S9N7 D6] | 12.4
